Assay [1] addresses Human JNK2α2 (Homo sapiens, UniProt P45984). Nature of the assay: JNK assay in vitro, phosphorylation of GST-ATF2 (19-96) with [γ-33P] ATP, JNK2. It is filed as biochemical. As to conditions: 1 nM enzyme, 1 μM ATF2, 8 μM ATP, 30° C. for 30 min. The procedure: (§1) JNK activity was measured by phosphorylation of GST-ATF2 (19-96) with [γ-^33P] ATP. The enzyme reaction was conducted at Km concentrations of ATP and the substrate at final volume of 40 μl in buffer containing 25 mM HEPES, pH 7.5, 2 mM dithiothreitol, 150 mM NaCl, 20 mM MgCl2, 0.001% Tween® 20, 0.1% BSA and 10% DMSO. Human JNK2α2 assay contains 1 nM enzyme, 1 μM ATF2, 8 μM ATP with 1 uCi [γ-^33P] ATP. Human JNK1α1 assay contains 2 nM enzyme, 1 μM ATF2, 6 μM ATP with 1 μCi [γ-^33P] ATP. Human JNK3 (Upstate Biotech #14-501M) assay contains 2 nM enzyme, 1 μM ATF2, 4 μM ATP with 1 μCi [γ-^33P] ATP. The enzyme assay was carried out in the presence or absence of several compound concentrations. JNK and compound were pre-incubated for 10 min., followed by initiation of the enzymatic reaction by adding ATP and the substrate. The reaction mixture was incubated at 30° C. for 30 min. At the end of incubation, the reaction was terminated by transferring 25 μl of the reaction mixture to 150 μl of 10% glutathione Sepharose® slurry (Amersham # 27-4574-01) containing 135 mM EDTA. The reaction product was captured on the affinity resin, and washed on a filtration plate (Millipore, MABVNOB50) with phosphate buffered saline for six times to remove free radionucleotide. The incorporation of ^33P into ATF2 was quantified on a microplate scintillation counter (Packard Topcount). Compound inhibition potency on JNK was measured by IC50 value generated from ten concentration inhibition curves fitted into the 3-parameter model: % inhibition=Maximum/(1+(IC50/[Inhibitor])^slope). Data were analyzed on Microsoft Excel for parameter estimation.

Assay [2] addresses Human JNK1α1 (Homo sapiens, UniProt P45983). Nature of the assay: JNK assay in vitro, phosphorylation of GST-ATF2 (19-96) with [γ-33P] ATP, JNK1. It counts as biochemical. As to conditions: 2 nM enzyme, 1 μM ATF2, 6 μM ATP, 30° C. for 30 min. The procedure: as §1

The IC50 is the concentration that gives 50% inhibition. A lower IC50 goes with inhibition by little substance.

Chain of Human JNK1α1 (P45983 1-384 isoform P45983-2): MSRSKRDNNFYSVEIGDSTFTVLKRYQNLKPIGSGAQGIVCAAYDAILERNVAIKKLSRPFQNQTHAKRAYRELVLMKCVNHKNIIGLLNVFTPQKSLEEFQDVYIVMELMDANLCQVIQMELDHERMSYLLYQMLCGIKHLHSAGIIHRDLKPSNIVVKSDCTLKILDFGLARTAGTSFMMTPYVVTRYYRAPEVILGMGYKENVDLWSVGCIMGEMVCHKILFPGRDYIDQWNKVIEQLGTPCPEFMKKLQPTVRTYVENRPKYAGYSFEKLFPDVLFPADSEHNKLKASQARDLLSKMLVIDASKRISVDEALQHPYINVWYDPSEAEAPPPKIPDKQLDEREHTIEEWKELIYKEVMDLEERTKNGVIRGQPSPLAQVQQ
Chain of Human JNK2α2 (P45984 whole entry): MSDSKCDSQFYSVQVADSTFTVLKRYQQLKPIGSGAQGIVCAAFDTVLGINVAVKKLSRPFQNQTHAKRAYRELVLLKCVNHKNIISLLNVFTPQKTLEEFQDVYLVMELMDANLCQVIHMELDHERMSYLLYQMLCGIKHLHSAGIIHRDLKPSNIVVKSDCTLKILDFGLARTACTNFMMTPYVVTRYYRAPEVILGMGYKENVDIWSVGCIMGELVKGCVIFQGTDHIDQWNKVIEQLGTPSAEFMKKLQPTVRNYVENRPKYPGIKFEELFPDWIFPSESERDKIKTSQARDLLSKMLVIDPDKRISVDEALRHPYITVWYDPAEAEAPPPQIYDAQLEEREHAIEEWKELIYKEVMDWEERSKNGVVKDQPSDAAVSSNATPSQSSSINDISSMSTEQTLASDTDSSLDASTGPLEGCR

As to `CC(CCO)n1c(=O)ccc2cnc(NC3CCCCC3)nc21` (stereo not drawn) [Compound 1, 2-Cyclohexylamino-8-(3-hydroxy-1-methyl-propyl)-8H-pyrido[2,3-d]pyrimidin-7-one], the IC50 was found to be 154 nM in assay [1] and 70.1 nM in assay [2].
The matching figures for `O=c1ccc2cnc(NC3CCCCC3)nc2n1C1CCCC1` [Compound 3, 2-Cyclohexylamino-8-cyclopentyl-8H-pyrido[2,3-d]pyrimidin-7-one]: 136 nM and 108 nM.
Consider `CS(=O)(=O)N[C@H]1CC[C@H](Nc2ncc3ccc(=O)n(CCCO)c3n2)CC1` [Compound 5, N-{4-[8-(3-Hydroxy-propyl)-7-oxo-7,8-dihydro-pyrido[2,3-d]pyrimidin-2-ylamino]-cyclohexyl}-methanesulfonamide], for which the values for the IC50 in assay [1] and in assay [2] were 778 nM and 282 nM, respectively.
The corresponding values for `Cc1cc2cnc(N[C@H]3CC[C@H](O)CC3)nc2n(CCCO)c1=O` [Compound 7, 2-(4-Hydroxy-cyclohexylamino)-8-(3-hydroxy-propyl)-6-methyl-8H-pyrido[2,3-d]pyrimidin-7-one] are 409 nM and 291 nM.
The corresponding values for `CS(=O)(=O)NCCCn1c(=O)ccc2cnc(NC3CCCCC3)nc21` [Compound 9, N-[3-(2-Cyclohexylamino-7-oxo-7H-pyrido[2,3-d]pyrimidin-8-yl)-propyl]-methanesulfonamide] are 625 nM and 464 nM.
With `Cc1cc2cnc(NC3CCCCC3)nc2n(CCCO)c1=O` [Compound 11], the IC50 was 713 nM in assay [1] and 503 nM in assay [2].
